Experiments:
OIR model = assay: Oxygen-induced retinopathy (OIR) model, pathological retinal neovascularization; format: in vivo, mouse; settings: for reduction of pathological retinal neovascularization by eye drops plus anti-VEGF injection compared with anti-VEGF injection alone: isolectin B4, anti-VEGF antibody 2 µg intravitreal at P12, eye drops twice a day until P17, on average
Experimental: follows: 5’-[…]-3’, 5’- […]
OIR. OIR model was performed as previously described. The pups and their mothers […]
were exposed to 75% oxygen at 7-12 days after birth, and then exposed to indoor air […]
for another 5 days. At P17, the mice were anesthetized and sacrificed, and the retinas […]
Isolectin B4. Isolectin B4 staining for retinal blood vessel visualization is as […]
described above. After fixing the eyeball with 4% paraformaldehyde (overnight at 4 […]
degrees), the intact retina was peeled off using microscissors and micro tweezers.
After rupture of the membrane with 2% Triton X-100, the retina was placed in the […]
configured isolectin B4 staining (1:100) overnight at 4 degrees. Acquire multiple […]
overlapping (10-20% overlap) images using a fluorescence microscope and merge […]
them together in Adobe Photoshop to visualize the entire retina. Use ImageJ software to quantify the area of pathological neovascularization relative to the total retinal area. […]
(§1) Statistical analysis. Statistical analysis was conducted using Graphpad Prism 8.0 software. All data were expressed by mean ± SD. Unpaired two-tailed Student’s t-test (two groups) or one-way ANOVA (more than 2 groups) was used to analyze the statistical significances of the data. Person’s correlation analysis was conducted to […]

[1] = TEM morphology and size of SSP nanostructures; format: physicochemical; settings: for morphology after incubation with sSema4D: sSema4D 6 h, room temperature, mass ratio sSema4D/SSP 1/1000
Experimental: TP-1 to TP-12, SSP-1 and SSP-2 […]
were purchased by GL Biochem (Shanghai) Ltd.
Preparation of peptide-based nanomaterials. SSP-1 or SSP-2 monomers were dissolved in artificial tears at a concentration of 4.0 mM and sonicated for 30 min, followed by quick injection into water at a volume ratio of 1:200 for artificial tears and H2O to obtain the nanomaterials solution (20 μM).
TEM for the morphology. The SSP-1 or SSP-2 solution with the concentration of 20 μM (10 μL) was placed dropwise onto a copper mesh for 5 min, then most of the liquid was removed through a filter paper. Uranyl acetate solution (10 μL) were employed to stain the samples for 5 min, followed by drying the spare liquid with the filter. Finally, the copper mesh was washed with 10 μL of deionized water, which was blotted after staining and drying at room temperature. All of the samples were observed by TEM (Tecnai G2 20 S-TWIN) at an accelerating voltage of 120 kV. […]

[2] = Intraocular distribution and retention after topical instillation; format: in vivo, mouse; settings: for presence (retention) in the mice vitreous humor: FITC-labeled peptide eye drops, fluorescence of vitreous humor at different time points, n = 3 (each sample from 5 mice); for intraocular distribution of fluorescence after topical instillation: FITC-labeled peptide, 10 µL eye drop once, 12 h after instillation, fluorescence and LC/MS
Experimental: To study the intraocular distribution of the FITC‐labeled SSP‐1 and SSP‐2 after topical instillation, fluorescence observation and liquid chromatography‐mass spectrometry (LC/MS) were performed on the entire eyes of mice, the frozen sections of the eyes, and their vitreous humor (Figure 7A–D). […] The topical instillation of SSP eye drop was instilled once with 10 µL before fluorescence observation. However, intraocular injection was administrated once with the maximum volume of 2 µL to avoid overdose induced high intraocular pressure due to the limited volume of the vitreous cavity. […] Next, we studied the intraocular pharmacokinetics of SSP‐1 and SSP‐2 after topical instillation. […] Moreover, we established an in vitro blood‐retina barrier (BRB) model to investigate the transferring efficiency of SSP‐1 and SSP‐2 across the posterior ocular absorption barriers. […]
Intraocular Distribution of FG/FH. Male mice (20-25 g) derived from Charles River (Beijing, China) were used in this experiment. 10 μL FITC-labeled FH or FG (dissolved in artificial tear fluid, 20 nM) were gently dripped in the conjunctival sac.
The upper and lower eyelids were massaged to make homodisperse on the eye surface. After 12h FITC-labeled FH or FG were instilled, the mice were sacrificed and the eyeballs were wash in the PBS solution. luminescence signal was detected via the In-Vivo FX PRO system (Bruker).
as §1

[3] = tested on: in vitro BRB model (ARPE-19 layer and HUVEC layer)
endothelial cells = assay: Wound-healing and transwell migration of endothelial cells induced by recombinant Sema4D; format: cell-based, mouse; settings: wound-healing and transwell assays, n = 3; effect equal to anti-Sema4D antibody
[4] = eye drops 5 µL per eye twice daily P12 to P17, n = 8, equal to intraocular anti-Sema4D antibody
[5] = eye drops 5 µL per eye twice daily P12 to P17, vs littermate controls, n = 7
[6] = intravitreal injection at P12, retinas at P17, n = 8, effect equal to Sema4D antibody
[7] = intravitreal injection at P12, retinas at P17, vs littermate controls, n = 6
[8] = self-assembled in water, 20 μM, without sSema4D

morphology after incubation with sSema4D [1]	average length of nanorods [1, 8] [nm]	presence (retention) in the mice vitreous humor [2]	intraocular distribution of fluorescence after topical instillation [2]	transfer across the in vitro BRB [3]	average size of NPs [1, 8] [nm]	Substance	pathological retinal vascular neovascularization (isolectin B4 staining) (OIR model; [4])	numbers of preretinal neovascular cells (OIR model; [5])	pathological retinal vascular neovascularization (isolectin B4 staining) (OIR model; [6])	numbers of preretinal neovascular cells (OIR model; [7])	reduction of pathological retinal neovascularization by eye drops plus anti-VEGF injection compared with anti-VEGF injection alone (OIR model) [%]	recombinant Sema4D protein-induced endothelial cell migration (endothelial cells)
long‐size of nanofibrillar structures	190 ± 23.9	up to 5 days	mainly in the retina and vitreous humor	effectively transferred across the BRB	–	C16‐FFVLK‐KNKAAKG [SSP-2, smart supramolecular peptide, C16‐FFVLK‐KNKAAKG, self-assembling, captures sSema4D]	decreased	significantly decreased	decreased	significantly reduced	22.68	inhibited
dense NFs network structures	–	up to 5 days	mainly in the retina and vitreous humor	effectively transferred across the BRB	44.8 ± 2.9	C16‐FFVLK‐KQKRPRH [SSP-1, smart supramolecular peptide, C16‐FFVLK‐KQKRPRH, self-assembling, captures sSema4D]	decreased	significantly decreased	decreased	significantly reduced	25.72	inhibited

— publication PMC9875641, “Ophthalmic Solution of Smart Supramolecular Peptides to Capture Semaphorin 4D against Diabetic Retinopathy” (Advanced Science, 2022)
